Where two headings read alike, the source gives them in different places.
Legend:
Assay type in all cases: in vivo
[1] = tested on: barnyardgrass (Echinochloa crus-galli); assay: Test A greenhouse herbicide test, pre- and postemergence; conditions: for pest or weed control at 1000 g/ha: Echinochloa crus-galli, 240 h, 1000 g ai/ha
How it was run: (§1)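 Seeds in loam–sand blend received a preemergence directed soil spray; plants at 2–10 cm, one- to two-leaf stage, received postemergence sprays. Compounds in a non-phytotoxic solvent with surfactant. After about 10 d in a greenhouse, injury rated visually versus untreated controls on a 0–100 scale (100 = complete control).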

corn (Zea mays) = assay: as above; conditions: for Plant response rating, Corn: 125 g ai/ha, visual rating after approx. 10 d, 0 to 100 scale (0 no effect, 100 complete control); for Corn plant response rating: 500 g ai/ha
How it was run: as §1

[2] = tested on: foxtail, giant (giant foxtail, Setaria faberii); assay: as above; conditions: for pest or weed control at 1000 g/ha: Setaria faberi, 240 h, 1000 g ai/ha
How it was run: as §1

[3] = tested on: barnyardgrass (Echinochloa crus-galli); assay: Test B flooded paddy test; conditions: 250 g ai/ha, Flood, visual rating on scale of 0 to 100 where 0 is no effect and 100 is complete control, 13 to 15 d after treatment
How it was run: (§2)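 Plants grown to the 2-leaf stage. At treatment, pots were flooded to 3 cm above the soil, compound was applied directly to the paddy water, and that depth was held throughout. After 13 to 15 d in the greenhouse, response was rated visually against controls on a 0 (no effect) to 100 (complete control) scale.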

[4] = tested on: ducksalad (Heteranthera limosa); assay: Test B flooded paddy test; conditions: 250 g ai/ha, Flood, visual rating on scale of 0 to 100 where 0 is no effect and 100 is complete control, 13 to 15 d after treatment
How it was run: as §2

rice (Oryza sativa) = assay: Test B flooded paddy test; conditions: 250 g ai/ha, Flood, visual rating on scale of 0 to 100 where 0 is no effect and 100 is complete control, 13 to 15 d after treatment
How it was run: as §2

[5] = tested on: sedge, umbrella (small-flower umbrella sedge, Cyperus difformis); assay: Test B flooded paddy test; conditions: 250 g ai/ha, Flood, visual rating on scale of 0 to 100 where 0 is no effect and 100 is complete control, 13 to 15 d after treatment
How it was run: as §2

[6] = tested on: chickweed (common chickweed, Stellaria media); assay: Test C greenhouse herbicide test, postemergence
How it was run: (§3)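 Seedlings are raised in pots of peat moss–vermiculite medium with starter nutrients, then receive postemergence test chemical at the 1- to 4-leaf stage. They are kept in the greenhouse 13 to 15 d and scored visually versus controls, 0 meaning no effect and 100 complete control.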

kochia (Kochia scoparia) [7] = assay: Test C greenhouse herbicide test, postemergence
How it was run: as §3

[8] = tested on: oat, wild (wild oat, Avena fatua); assay: Test C greenhouse herbicide test, postemergence
How it was run: as §3

kochia (Kochia scoparia) [9] = assay: Test A greenhouse herbicide test, pre- and postemergence
How it was run: as §1

[10] = tested on: ragweed (common ragweed, Ambrosia elatior); assay: as above
How it was run: as §1

[11] = Postemergence, 31 g ai/ha, 0 to 100 scale (0 no effect, 100 complete control)
[12] = Postemergence, 125 g ai/ha, scale 0 to 100, 0 is no effect, 100 is complete control
[13] = Postemergence, 250 g ai/ha, scale 0 to 100, 0 no effect, 100 complete control, 13 to 15 d
[14] = postemergence, 62 g ai/ha, scale 0 to 100, 0 no effect, 100 complete control
[15] = Postemergence, 125 g ai/ha, visual rating after approx. 10 d, 0 to 100 scale (0 no effect, 100 complete control)
[16] = Postemergence, 500 g ai/ha, 0 to 100 scale, 0 is no effect, 100 is complete control
[17] = Preemergence, 125 g ai/ha, 0 to 100 scale where 0 is no effect and 100 is complete control
[18] = Preemergence, 500 g ai/ha, 0 to 100 scale, 0 no effect, 100 complete control
[19] = Postemergence, 0 to 100 scale, 0 is no effect, 100 is complete control

Row | Structure (SMILES) | Chickweed plant response rating [6, 11] | Plant response rating, Chickweed [6, 12] | Plant response rating, Chickweed [6, 13] | Chickweed plant response rating [6, 14] | Kochia plant response rating (kochia (Kochia scoparia) [7]; [11]) | Plant response rating, Kochia (kochia (Kochia scoparia) [7]; [12]) | Plant response rating, Kochia (kochia (Kochia scoparia) [7]; [13]) | Kochia plant response rating (kochia (Kochia scoparia) [7]; [14]) | Oat, Wild plant response rating [8, 11] | Plant response rating, Oat, Wild [8, 12] | Plant response rating, Oat, Wild [8, 13] | Oat, Wild plant response rating [8, 14] | Plant response rating, Barnyardgrass [1, 15] | Barnyardgrass plant response rating [1, 16] | Barnyardgrass plant response rating [1, 17] | Plant response rating, Barnyardgrass [1, 18] | Plant response rating, Corn (corn (Zea mays); Postemergence) | Corn plant response rating (corn (Zea mays); [19]) | Plant response rating, Foxtail, Giant [2, 15] | Foxtail, Giant plant response rating [2, 16] | also measured
1 | Cc1nn(C)c(=O)c(-c2cccc3ccccc23)c1O [Compound 11, 5-hydroxy-2,6-dimethyl-4-(1-naphthalenyl)-3(2H)-pyridazinone] | 60 | 85 | 90 | 65 | 85 | 100 | 100 | 95 | 40 | 60 | 70 | 45 |  |  |  |  |  |  |  |  | pest or weed control at 1000 g/ha ([1]; post-emergence, Postemergence, 0 to 100 scale, 0 is no effect, 100 is complete control, read-out: Barnyardgrass plant response rating): 80%; pest or weed control at 1000 g/ha ([1]; pre-emergence, Preemergence, 0 to 100 scale, 0 no effect, 100 complete control, read-out: Plant response rating, Barnyardgrass): 90%; plant injury at 1000 g/ha (corn (Zea mays); Zea mays, post-emergence, 240 h, Postemergence, 1000 g ai/ha, 0 to 100 scale, 0 is no effect, 100 is complete control, read-out: Corn plant response rating): 50%; Corn plant response rating (crop injury, 0 = no effect, 100 = complete kill) at 1000 g/ha (corn (Zea mays); Zea mays, pre-emergence, 240 h, Preemergence, 1000 g ai/ha, 0 to 100 scale, 0 no effect, 100 complete control): 20%; pest or weed control at 1000 g/ha ([2]; post-emergence, Postemergence, 0 to 100 scale, 0 is no effect, 100 is complete control, read-out: Foxtail, Giant plant response rating): 90%; pest or weed control at 1000 g/ha ([2]; pre-emergence, Preemergence, 0 to 100 scale, 0 no effect, 100 complete control, read-out: Plant response rating, Foxtail, Giant): 90%; pest or weed control at 250 g/ha ([3]; Echinochloa crus-galli, 360 h, read-out: Plant response rating, Barnyardgrass): 0%; pest or weed control at 250 g/ha ([4]; Heteranthera limosa, 360 h, read-out: Plant response rating, Ducksalad): 0%; plant injury at 250 g/ha (rice (Oryza sativa); Oryza sativa, 360 h, read-out: Plant response rating, Rice): 0%; pest or weed control at 250 g/ha ([5]; Cyperus difformis, 360 h, read-out: Plant response rating, Sedge, Umbrella): 0%
2 | Cn1nc(Br)c(O)c(-c2cccc3ccccc23)c1=O [Compound 20] | 90 | 100 | 100 | 98 | 50 | 90 | 100 | 80 | 0 | 25 | 40 | 5 | 30 | 100 | 30 | 90 | 20 | 30 | 30 | 100 | Foxtail, Giant plant response rating [2, 17]: 40; Plant response rating, Foxtail, Giant [2, 18]: 90; Plant response rating, Kochia (kochia (Kochia scoparia) [9]; [15]): 90; Kochia plant response rating (kochia (Kochia scoparia) [9]; [16]): 100; Kochia plant response rating (kochia (Kochia scoparia) [9]; [17]): 80; Plant response rating, Kochia (kochia (Kochia scoparia) [9]; [18]): 100; Plant response rating, Ragweed [10, 15]: 80; Ragweed plant response rating [10, 16]: 100; Ragweed plant response rating [10, 17]: 30; Plant response rating, Ragweed [10, 18]: 90; Plant response rating, Barnyardgrass [3]: 0; Plant response rating, Ducksalad [4]: 50; Plant response rating, Rice (rice (Oryza sativa)): 0; Plant response rating, Sedge, Umbrella [5]: 50
3 | Cc1cc(C)c2ccccc2c1-c1c(O)c(C)nn(C)c1=O [Compound 21] | 95 | 100 | 100 | 100 | 80 | 95 | 100 | 90 | 90 | 98 | 100 | 98 | 90 | 90 | 90 | 100 | 50 | 60 | 100 | 100 | Foxtail, Giant plant response rating [2, 17]: 90; Plant response rating, Foxtail, Giant [2, 18]: 100; Plant response rating, Kochia (kochia (Kochia scoparia) [9]; [15]): 100; Kochia plant response rating (kochia (Kochia scoparia) [9]; [16]): 100; Kochia plant response rating (kochia (Kochia scoparia) [9]; [17]): 30; Plant response rating, Kochia (kochia (Kochia scoparia) [9]; [18]): 90; Plant response rating, Ragweed [10, 15]: 100; Ragweed plant response rating [10, 16]: 100; Ragweed plant response rating [10, 17]: 100; Plant response rating, Ragweed [10, 18]: 100; Plant response rating, Barnyardgrass [3]: 70; Plant response rating, Ducksalad [4]: 0; Plant response rating, Rice (rice (Oryza sativa)): 55; Plant response rating, Sedge, Umbrella [5]: 65
4 | Cc1nn(C)c(=O)c(-c2c(C)sc3ccc(Br)cc23)c1O [Compound 22] | 90 | 95 | 98 | 90 | 90 | 95 | 95 | 95 | 40 | 80 | 80 | 50 | 30 | 50 | 10 | 70 | 0 | 0 | 60 | 90 | Foxtail, Giant plant response rating [2, 17]: 70; Plant response rating, Foxtail, Giant [2, 18]: 90; Plant response rating, Kochia (kochia (Kochia scoparia) [9]; [15]): 100; Kochia plant response rating (kochia (Kochia scoparia) [9]; [16]): 100; Kochia plant response rating (kochia (Kochia scoparia) [9]; [17]): 70; Plant response rating, Kochia (kochia (Kochia scoparia) [9]; [18]): 100; Plant response rating, Ragweed [10, 15]: 90; Ragweed plant response rating [10, 16]: 100; Ragweed plant response rating [10, 17]: 90; Plant response rating, Ragweed [10, 18]: 90; Plant response rating, Barnyardgrass [3]: 0; Plant response rating, Ducksalad [4]: 0; Plant response rating, Rice (rice (Oryza sativa)): 0; Plant response rating, Sedge, Umbrella [5]: 0

— patent US10597388B2, “Pyridazinone herbicides” (FMC CORPORATION, priority 2014, dated 2020)
